Reference: patent US20110251191A1, “USE OF SUBSTITUTED 2, 3-DIHYDROIMIDAZO[1,2-C]QUINAZOLINES FOR THE TREATMENT OF MYELOMA” (BAYER SCHERING PHARMA AKTIENGESELLSCHAFT, priority 2008, published 2011)

What was measured:
Type in all cases: cell-based
[1] = system: KMS-12-BM; assay: proliferation assay (CellTiter-Glo), KMS-12-BM; conditions: KMS-12-BM cells, 72-hour drug exposure
Experimental: (§1) In accordance with the invention, the compounds were assessed in a cell-based assay that measures the capacity of the compounds to inhibit tumor cell proliferation following a 72-hour drug exposure. Cell viability is determined using CellTiter-Glo® Luminescent Cell Viability Assay (Promega). Cells were plated at 2000-5000 cells/well (depending on the cell lines) in 100 μL growth medium on 96-well microtiterplate. For each cell line assayed, cells were plated onto a separate plate for determination of Luminescence at t=0 hour and t=72 hour time points. Following overnight incubation at 37° C., Luminescence values for the t=0 samples were determined. Dose plates for the t=72 hour time points were treated with compounds diluted into growth medium. Cells were then incubated for 72 hours at 37° C. Luminescence values for the t=72 hour samples were determined. For data analysis, briefly, t=0 values were subtracted from those determined for the t=72 hour time points, for both the treated and untreated samples. Percent differences in […] between drug-treated and control values were used to determine the percent inhibition of growth.

[2] = system: multiple myeloma cell lines; assay: proliferation assays with multiple myeloma cell lines (summary); conditions: range over 9 multiple myeloma cell lines, 72-hour drug exposure; read-out: IC50s, proliferation of 9 multiple myeloma tested
Experimental: as §1

[3] = system: Molp8; assay: proliferation assay (CellTiter-Glo), Molp8; conditions: Homo sapiens, MOLP-8; Molp8 cells, 72-hour drug exposure
Experimental: as §1

[4] = system: KMS-12-PE; assay: proliferation assay (CellTiter-Glo), KMS-12-PE; conditions: Homo sapiens; KMS-12-PE cells, 72-hour drug exposure
Experimental: as §1

[5] = system: LP-1; assay: proliferation assay (CellTiter-Glo), LP-1; conditions: LP-1 cells, 72-hour drug exposure
Experimental: as §1

[6] = system: L363; assay: proliferation assay (CellTiter-Glo), L363; conditions: Homo sapiens, L-363; L363 cells, 72-hour drug exposure
Experimental: as §1

[7] = system: Molm13; assay: proliferation assay (CellTiter-Glo), Molm13; conditions: Homo sapiens, MOLM-13; Molm13 cells, 72-hour drug exposure
Experimental: as §1

[8] = system: Molp2; assay: proliferation assay (CellTiter-Glo), Molp2; conditions: MOLP-2; Molp2 cells, 72-hour drug exposure
Experimental: as §1

[9] = system: RPMI 8226; assay: proliferation assay (CellTiter-Glo), RPMI 8226; conditions: Homo sapiens; RPMI 8226 cells, 72-hour drug exposure
Experimental: as §1

[10] = system: OPM2; assay: proliferation assay (CellTiter-Glo), OPM2; conditions: Homo sapiens, OPM-2; OPM2 cells, 72-hour drug exposure
Experimental: as §1

Question: What does the source list for `COc1c(OCCCN2CCOCC2)ccc2c1N=C(NC(=O)c1cnc(N)nc1)N1CCN=C21` [Compound A, 2-amino-N-[7-methoxy-8-(3-morpholin-4-ylpropoxy)-2,3-dihydroimidazo[1,2-c]quinazolin-5-yl]pyrimidine-5-carboxamide]?
Answer: IC50 [1]: 3.7 nM; IC50 [2]: 3 to 100 nM; IC50 [3]: 23 nM; IC50 [4]: 67 nM; IC50 [5]: 3.7 nM; IC50 [6]: 8.1 nM; IC50 [7]: 69 nM; IC50 [8]: 12 nM; IC50 [9]: 48 nM; IC50 [10]: 92 nM
